This passage reports AUC(0-t), Cmax and Tmax results from patent US20240270786A1, “STEROID COMPOUNDS” (Epirium Bio Inc., priority 2022, published 2024).

The nature of the series: Pharmacokinetics: quantitative determination of compounds in mice brains. Format: in vivo, C57BL/6 Mice. The settings on record: C57BL/6, mouse, brain, 10 mg/kg PO single dose, vehicle 10% NMP. As to the method:
C57BL/6 Mice, Age 7-9 weeks, body weight range 20-25 g were used. The mice were fasted overnight. Mice were dosed once a day for a single day at 10 mg/kg, 10 mg/kg. 6 time-points were used for whole blood. 10% NMP was used as a vehicle. 9 animals were used per treatment, with three groups of three animals each. Group 1 had time points at 15 and 60 minutes, Group 2 had time points at 30 and 120 minutes, and Group 3 had time points at 90 and 240 minutes. An Oral (PO) route was used. Plasma and brain samples were collected (brain sample collected at terminal time point). Plasma was collected through the centrifugation of whole blood at 10,000 rpm for 10 minutes at 4° C. Samples were stored at −80° C. until processing.
1.00 mg/mL in 100% MeOH PP vials (prepared at RT yellow light) at 2-8° C. were used as stock solution. 12.22-50000 ng/mL using 80% MeOH PP vials (prepared at RT yellow light) at 2-8° C. were used as working solution. 0.48-2000 ng/mL (prepared at RT yellow light) was used for the curve range. For Compounds 26, 40, and 50, 1.00 mg/mL of Compound 53 in 100% methanol Ria vials (Prepared at RT yellow light) was used as IS stock solution, and 80 ng/mL of Compound 53 in 80% methanol (Prepared at RT yellow light) was used as IS working solution. For Compound 36, 1.00 mg/mL of Compound 47 in 100% methanol Ria vials (Prepared at RT yellow light) was used as IS stock solution, and 80 ng/mL of Compound 47 in 80% methanol (Prepared at RT yellow light) was used as IS working solution. A linear, 1/×2 fit type was used. The injection volume was 10 μL for Compounds 26 and 36, and 5 μL for Compounds 40 and 50. Mobile Phase A was 0.1% Formic Acid in water at room temperature. Mobile Phase B was 100% methanol at room temperature. R0 wash solution was 80% methanol at room temperature. R3 wash solution was IPA/MeOH/ACN/water (1:1:1:1) at room temperature. The column was Agilent Eclipse 50*2.1 mm 1.8 μm and the instrument was Shimadzu LC-40 UPLC and AB Sciez 6500+ with LCMS002.
100 mg of brain tissue were weighed, 400 μL of Ice cold PBS was added, and samples were homogenated using polytron homogenizer. Before starting the experiment the blade was cleaned with NS, Methanol, Methanol: Water (50:50) followed by NS. Using a pipette with Methanol-rinsed pipette tips, homogenate 50 μL of each sample (calibration curve sample, QC samples and blank matrix) was aliquoted to labeled 1.5 ml Ependorfs. Using a pipette, 5.0 μL of IS of conc. 80 ng (Cocktail IS) was aliquoted to each standards and samples except Blank. All tubes were mixed on a multi-tube vortex for approximately 30 seconds. 1 ml of tert-butyl methyl ether (TBME) was added. All tubes were mixed on a multi-tube vortex for approximately 5 minutes then centrifuged for 10 min at 5,000 rpm, 4° C. The sample was kept in methanol containing dry ice for few seconds to freeze the Aqueous layer (flash freeze method). The upper organic layer was poured from the frozen tubes into the labeled 12×75-mm rial vials and evaporated to dryness under nitrogen using Liquid Evaporator (30° C., ˜15 psi, ˜10 mins). 200 μl of reconstitution solution (0.1% Formic Acid: MeOH (20:80 v/v) were added into each tube. The samples were vortexed for 30 seconds then transferred to amber glass injection vials for injection.
At the terminal time points, animals were euthanized after blood sample collection. Their skulls were opened and whole brains were separated and collected in previously labeled tubes. The tubes were then immediately transferred into liquid nitrogen container for snap freezing. Later the samples were stored at −80° C.
As a reminder, the AUC(0-t) is the area under the concentration-time curve up to a stated or last time point. In general, Cmax refers to the highest concentration seen after dosing. The Tmax is the time from dosing to the highest level. On to `CNC(=O)[C@H]1CCC2C3CC=C4N(C)C(=O)CC[C@]4(C)C3[C@@H](O)C[C@@]21C` (stereo partly drawn) [Compound 40, (4aR,5S,6aS)-5-hydroxy-N,1,4a,6a-tetramethyl-2-oxo-2,3,4,4a,4b,5,6,6a,7,8,9,9a,9b,10-tetradecahydro-1H-indeno[5,4-f] quinoline-7-carboxamide], for which the AUC(0-t) is 2500 ng·h/mL, the Cmax stood at 1680 ng/mL and the Tmax is 1 h.
Take `CN1C(=O)CC[C@@]2(C)C1=CCC1C2[C@@H](O)C[C@@]2(C)C1CC[C@@H]2NC(=O)C1CC1` (stereo partly drawn) [Compound 26, N-((4aR,5S,6aS,7S)-5-hydroxy-1,4a,6a-trimethyl-2-oxo-2,3,4,4a,4b,5,6,6a,7,8,9,9a,9b,10-tetradecahydro-1H-indeno[5,4-f]quinolin-7-yl)cyclopropanecarboxamide]: the exposure AUC(0-t) was found to be 487 ng·h/mL, the Cmax stood at 433 ng/mL and the Tmax was determined as 1 h.
The matching figures for `CC(C)CCNC(=O)C1CCC2C3CC=C4N(C)C(=O)CC[C@]4(C)C3[C@@H](O)C[C@]12C` (stereo partly drawn) [Compound 36, (4aR,5S,6aS)-5-hydroxy-N-isopentyl-1,4a,6a-trimethyl-2-oxo-2,3,4,4a,4b,5,6,6a,7,8,9,9a,9b,10-tetradecahydro-1H-indeno[5,4-f]quinoline-7-carboxamide]: 1640 ng·h/mL, 1160 ng/mL and 1 h.
